Reference: patent publication US11065230B2, “Methods and pharmaceutical compositions for the treatment of systemic mastocytosis” (INSERM (INSTITUT NATIONAL DE LA SANTE ET DE LA RECHERCHE …, priority 2016, dated 2021)

What was measured:
[1] = tested on: HMC1.2 MC line (G560V and D816V KIT mutation); assay: Cell death and proliferation in HMC1.2 mast cell line; assay type: cell-based, human; details: KPT at 100 nM, 500 nM, 1000 nM vs DMSO; for cell proliferation (counting after trypan blue staining): 24, 48 and 72 hours; for cell death (percentage of dead cells, trypan blue staining): 72 hours
Protocol: (§1) FIG. 2. […] Upper panel: Cell death data are presented in histograms as mean percentage of dead cells ±SD assessed by counting after blue trypan staining after 72 hours of treatment with KPT at 100 nM, 500 nM, 1000 nM or DMSO (control) in HMC1.1 and HMC1.2 MC lines, n=3 independent experiments. P values are determined by ANOVA Tukeys multiple comparison test. Lower panel: Proliferation curves analysis ±SD of HMC1.1 and HMC1.2 MC lines assessed by blue trypan staining at 24, 48 and 72 hours of treatment with KPT100 nM, 500 nM, KPT1000 nM, or DMSO (control), n=3 independent experiments. P values are determined by one-way ANOVA test, *P<0.05, **P<0,01, ns=not significant. Here we show the effect of KPT-251 treatment on two different human mast cell (MC) lines : ROSA and HMC1 cell lines and on bone marrow cells depleted with erythrocytes, from a patient with aggressive mastocytosis with D816V mutation. ROSA cell lines include a SCF-dependent MC line without KIT mutation (ROSA WT) and a factor-independent MC line with KIT mutation D816V (ROSA D816V). HMC1 factor-independent MC lines include HMC1.1 with […] KIT mutation and HMC1.2 with […] and D816V KIT mutation. […] Human MC lines ROSA WT and ROSA D816V were treated for 72 hours with KPT-251 at 100 nM, 1000 nM, or with DMSO (control) and HMC1.1 and HMC1.2 were treated for 72 hours with KPT-251 at 100 nM, 500 nM, 1000 nM, or with DMSO (control). WT ROSA cell lines were cultured in the presence of human SCF at 100 ng/mL. Cells were plated at 0,5 million/mL at day 0. Cell death percentage was assessed by counting after trypan blue staining or Annexin V labelling analysed by flow cytometry. Proliferation was assessed by counting after trypan blue staining. Bone marrow cells from patient were depleted with erythrocytes and then treated for 7 days with KPT at 100 nm, 500 nM, 1000 nm, or with DMSO (control) in culture media supplemented with SCF at 80 ng/mL and IL6 at 50 ng/mL.

[2] = tested on: normal hematopoietic stem and progenitor cells; details: cited from earlier work
[3] = tested on: ROSA WT MC line (SCF-dependent, without KIT mutation); assay: Cell death and proliferation in ROSA WT mast cell line; assay type: cell-based, human; details: KPT at 100 nM, 1000 nM vs DMSO; for cell proliferation (counting after trypan blue staining): 24, 48 and 72 hours; for cell death (percentage of annexin positive cells): 72 hours, SCF 100 ng/mL
Protocol: (§2) FIG. 1. […] Upper panel: Cell death data are presented in histograms as mean percentage of annexin positive cells ±SD after 72 hours of treatment with KPT at 100 nM, 1000 nM or with DMSO (control) in ROSA WT and ROSA D816V MC lines, n=6 independent experiments. P values are determined by ANOVA Tukeys multiple comparison test. Lower panel: Proliferation curves analysis ±SD of ROSA WT and ROSA D816V MC lines assessed by counting after blue trypan staining at 24, 48 and 72 hours of treatment with KPT at 100 nM, 1000 nM, or with DMSO (control), n=3 independent experiments. P values are determined by one-way ANOVA test, *P<0.05, ***P<0,001, ****P<0,0001, ns=not significant.
(§3) Here we show the effect of KPT-251 treatment on two different human mast cell (MC) lines : ROSA and HMC1 cell lines and on bone marrow cells depleted with erythrocytes, from a patient with aggressive mastocytosis with D816V mutation. ROSA cell lines include a SCF-dependent MC line without KIT mutation (ROSA WT) and a factor-independent MC line with KIT mutation D816V (ROSA D816V). HMC1 factor-independent MC lines include HMC1.1 with G560V KIT mutation and HMC1.2 with G560V and D816V KIT mutation.
(§4) Human MC lines ROSA WT and ROSA D816V were treated for 72 hours with KPT-251 at 100 nM, 1000 nM, or with DMSO (control) and HMC1.1 and HMC1.2 were treated for 72 hours with KPT-251 at 100 nM, 500 nM, 1000 nM, or with DMSO (control). WT ROSA cell lines were cultured in the presence of human SCF at 100 ng/mL. Cells were plated at 0,5 million/mL at day 0. Cell death percentage was assessed by counting after trypan blue staining or Annexin V labelling analysed by flow cytometry. Proliferation was assessed by counting after trypan blue staining. Bone marrow cells from patient were depleted with erythrocytes and then treated for 7 days with KPT at 100 nm, 500 nM, 1000 nm, or with DMSO (control) in culture media supplemented with SCF at 80 ng/mL and IL6 at 50 ng/mL.

[4] = tested on: ROSA D816V MC line (KIT mutation D816V); assay: Cell death and proliferation in ROSA D816V mast cell line; assay type: cell-based, human; details: KPT at 100 nM, 1000 nM vs DMSO; for cell proliferation (counting after trypan blue staining): 24, 48 and 72 hours; for cell death (percentage of annexin positive cells): 72 hours
Protocol: as §2, §3, §4

[5] = tested on: non-cancerous hematopoietic cells; details: both in vitro and in vivo; cited from earlier work
[6] = tested on: HMC1.1 MC line (G560V KIT mutation); assay: Cell death and proliferation in HMC1.1 mast cell line; assay type: cell-based, human; details: KPT at 100 nM, 500 nM, 1000 nM vs DMSO; for cell proliferation (counting after trypan blue staining): 24, 48 and 72 hours; for cell death (percentage of dead cells, trypan blue staining): 72 hours
Protocol: as §1

[7] = tested on: bone marrow cells from a patient with aggressive mastocytosis with D816V mutation; assay: Cell death, proliferation and histamine secretion in patient bone marrow cells; assay type: cell-based, human; details: 7 days, KPT at 100 nM, 500 nM, 1000 nM vs DMSO
Protocol: FIG. 3. […] Upper panel: Cell death data presented as percentage of dead cells, and proliferation data, are presented in histograms. Cell death and proliferation were assessed by counting after blue trypan staining, after 7 days of treatment with KPT at 100 nM, 500 nM, 1000 nM or DMSO (control), n=1. Lower panel Histamin concentration in ng/mL was quantified in cell culture media of bone marrow cells from the patient, after 7 days of treatment with KPT at 100 nM, 500 nM, 1000 nM or DMSO (control), n=1
as §3, §4

[8] = compared to first generation KPT; cited from earlier work
[9] = tested on: AML blasts and leukemia-initiating cells; details: cited from earlier work
[10] = tested on: patients with relapsed or refractory AML; details: alone or in combination with conventional therapies; cited from earlier work

SMILES: FC(F)(F)c1cc(-c2ncn(/C=C\c3nnco3)n2)cc(C(F)(F)F)c1 [KPT-251, (Z)-2-(2-(3-(3,5-bis(trifluoromethyl)phenyl)-1H-1,2,4-triazol-1-yl)vinyl)-1,3,4-oxadiazol]
- cell proliferation (counting after trypan blue staining) [1]: decreases proliferation
- cell proliferation (counting after trypan blue staining) ([1]; listed as KPT 251): significatively decreases proliferation in a dose dependent manner, more importantly in HMC1.2 cell line
- cell death (percentage of dead cells, trypan blue staining) [1]: no effect on cell death
- cell death (percentage of dead cells, trypan blue staining) ([1]; listed as KPT 251): weak effect on cell death
- effect on normal hematopoietic stem and progenitor cells [2]: no significant effect
- cell proliferation (counting after trypan blue staining) [3]: decreases proliferation
- cell proliferation (counting after trypan blue staining) ([3]; listed as KPT 251): decrease in cell proliferation
- cell death (percentage of annexin positive cells) [3]: induces cell death
- cell death (percentage of annexin positive cells) ([3]; listed as KPT 251): significant dose dependent increase in cell death
- cell proliferation (counting after trypan blue staining) [4]: decreases proliferation
- cell proliferation (counting after trypan blue staining) ([4]; listed as KPT 251): decrease in cell proliferation
- cell death (percentage of annexin positive cells) [4]: induces cell death
- cell death (percentage of annexin positive cells) ([4]; listed as KPT 251): significant dose dependent increase in cell death
- toxicity in non-cancerous hematopoietic cells [5]: minimal toxicity
- cell proliferation (counting after trypan blue staining) [6]: decreases proliferation
- cell proliferation (counting after trypan blue staining) ([6]; listed as KPT 251): significatively decreases proliferation in a dose dependent manner
- cell death (percentage of dead cells, trypan blue staining) [6]: no effect on cell death
- cell death (percentage of dead cells, trypan blue staining) ([6]; listed as KPT 251): weak effect on cell death
- cell death (percentage of dead cells, trypan blue staining) ([7]; n=1): induces cell death
- cell proliferation (counting after trypan blue staining) ([7]; n=1): decreases proliferation
- histamine concentration in cell culture media ([7]; n=1): decreases the secretion of histamin in culture media
- cell death (percentage of dead cells, trypan blue staining) ([7]; n=1, listed as KPT): increase in cell death
- cell proliferation (counting after trypan blue staining) ([7]; n=1, listed as KPT): decrease in proliferation
- histamine concentration in cell culture media ([7]; n=1, listed as KPT): decrease in media concentration of histamine

SMILES: NC(=O)/C(=C/n1cnc(-c2cc(C(F)(F)F)cc(C(F)(F)F)c2)n1)c1cncnc1 [KPT-8602]
- brain penetration [8]: reduced brain penetration
- tolerance [8]: better tolerance
- activity against AML blasts and leukemia-initiating cells [9]: effective activity

SMILES: O=C(/C=C\n1cnc(-c2cc(C(F)(F)F)cc(C(F)(F)F)c2)n1)NNc1cnccn1 [KPT-330]
- induction of remission [10]: active in inducing remission
